From publication PMC9147192, “Small Molecule Arranged Thermal Proximity Coaggregation (smarTPCA)—A Novel Approach to Characterize Protein–Protein Interactions in Living Cells by Similar Isothermal Dose–Responses” (International Journal of Molecular Sciences, 2022)
Like-named read-outs stand apart in the source and are kept apart here.

Legend:
[1] = target: MARS (Homo sapiens, UniProt P56192); test: TPP-CCR in living HL-60 cells
[2] = system: MAPK14; design: method as in Seashore-Ludlow et al., Biochemistry 2018; settings: MAPK14 only, ref Seashore-Ludlow et al., Biochemistry 2018, cited from earlier work
[3] = target: MTMR1 (Homo sapiens, UniProt Q13613); test: TPP-CCR in living HL-60 cells
[4] = target: T1, RARS (Homo sapiens, UniProt P54136); test: TPP-CCR in living HL-60 cells; type: cell-based
T1 construct: endogenous in cells; host or cells: HL-60 (ATCC CCL-240)
T1 sequence (P54136 1-660): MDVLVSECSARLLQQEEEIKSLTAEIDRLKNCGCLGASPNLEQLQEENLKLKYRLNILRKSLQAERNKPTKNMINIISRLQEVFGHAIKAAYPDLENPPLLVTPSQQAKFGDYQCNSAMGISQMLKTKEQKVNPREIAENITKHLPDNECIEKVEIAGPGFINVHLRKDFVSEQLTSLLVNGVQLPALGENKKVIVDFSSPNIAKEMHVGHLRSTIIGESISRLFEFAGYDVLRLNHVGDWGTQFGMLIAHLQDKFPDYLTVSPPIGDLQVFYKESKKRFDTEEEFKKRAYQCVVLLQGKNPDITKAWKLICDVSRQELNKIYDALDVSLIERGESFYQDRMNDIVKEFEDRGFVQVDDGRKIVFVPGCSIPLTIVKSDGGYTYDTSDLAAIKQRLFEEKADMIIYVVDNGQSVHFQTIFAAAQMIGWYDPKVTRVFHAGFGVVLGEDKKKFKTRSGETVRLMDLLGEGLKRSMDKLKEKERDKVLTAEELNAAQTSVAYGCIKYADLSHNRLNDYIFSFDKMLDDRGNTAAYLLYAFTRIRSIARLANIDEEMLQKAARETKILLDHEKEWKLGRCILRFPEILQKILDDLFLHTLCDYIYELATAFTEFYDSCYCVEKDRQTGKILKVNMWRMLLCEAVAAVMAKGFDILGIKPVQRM
From the text: (§1) Therefore, we performed TPP with compound concentration range (TPP-CCR) experiments according to published procedures. In brief, after preparing tryptic peptides from the non-denatured protein fractions (used for immunoblotting in the previous sections) applying the SP3 method, the peptides were labeled using TMT10plex, coding for inhibitor concentration, and the samples belonging to a TMT set were combined, offline high-pH fractionated, and analyzed by MS.
(§2) HL-60 cells were expanded as described above for CETSA and TPP-TR to 1.25 million cells per milliliter. […] A number of 2.5 million cells in 2 mL of medium were added to each tube and incubated (1 h, 37 °C). After centrifugation (300 rcf, 3 min, r.t.) and removing all of the supernating culture medium, the cells were washed once with 2 mL and once with 0.5 mL PBS (r.t.) by gently resuspending the cells, followed by centrifugation (300 rcf, 3 min, r.t.) and the complete removal of the supernatants.
(§3) After transferring the cells from the 2 mL Eppendorf tubes into correspondingly labeled PCR tubes (tube strips) using 100 µL of ice-cold PBS supplemented with protease inhibitors for resuspending the cells, the samples were further processed as described above for CETSA and TPP-TR, however, by applying a single treatment temperature of 51 °C.
(§4) For each sample set comprising ten compound concentration range samples, a same volume of the cell extracts containing the fraction of soluble, non-denatured proteins, corresponding to an average of 5 µg total protein, was used for further analysis. The calculated volume was respectively transferred into PCR tubes of a tube strip and supplemented with SDS sample buffer without DTT and bromophenol blue (final concentrations: 7.5% glycerol, 3% SDS, 37.5 mM Tris/HCl pH 7.0) and ddH2O to a final volume of 10 µL, respectively. Reduction and alkylation were performed by addition of 2.5 µL 100 mM dithiothreitol (DTT; incubation: 20 min, 56 °C, 1000 rpm in an Eppendorf ThermoMixer C, covering the tubes with aluminum foil to minimize condensation in the lids) and 3.33 µL 300 mM iodoacetamide (IAA; incubation: 15 min, r.t., in the dark without shaking), as well as 2.5 µL 100 mM DTT (incubation: 15 min, r.t., without shaking; quenching of excess of IAA). […] The beads were collected and washed (3× 200 µL 80% ethanol p.a. in HPLC-MS grade water, 1 × 200 µL acetonitrile (ACN; HPLC gradient grade)) using a device for handling of magnetic particles [patent US20100200405A1]. The ACN of the last washing step was completely removed by aspiration without letting the beads dry out.
(§5) Tryptic digest was performed on-bead by resuspending (use of an ultrasound bath may be required) the beads in 20 µL 50 mM TEAB in HPLC-MS grade water containing 0.1 µg Trypsin/Lys-C mix and 16.5 h incubation at 37 °C and 1000 rpm (Eppendorf ThermoMixer C, covering the tubes with aluminum foil to minimize condensation in the lids). Tryptic fragmentation of proteins was optimized by addition of another 0.1 µg of Trypsin/Lys-C mix in 2 µL 50 mM TEAB and 4 h incubation at 37 °C and 1000 rpm. After centrifugation for about 1 min in a table top centrifuge and magnetic concentration and retention of the beads at the inner tube wall, the supernatants containing the peptides were transferred into new PCR tubes (of tube strips) and were stored at −80 °C. The beads were discarded.
(§6) Half of the peptide samples (11 µL containing about 2.5 µg peptides) were transferred into new PCR tubes (of tube strips) and allowed to equilibrate to r.t. TMT labeling reagents were reconstituted as described for the TPP-TR samples, and 1 µL each was added to the reconstituted peptides according to the following scheme and homogenized immediately by aspiration and dispensing:
(§7) Peptide separation was performed as described above for the analysis of TPP-TR samples. […]

[5] = target: T2, SMIM12 (Homo sapiens, UniProt Q96EX1); test: TPP-CCR in living HL-60 cells; type: cell-based
T2 construct: endogenous in cells; host or cells: HL-60 (ATCC CCL-240)
T2 sequence (Q96EX1 1-92): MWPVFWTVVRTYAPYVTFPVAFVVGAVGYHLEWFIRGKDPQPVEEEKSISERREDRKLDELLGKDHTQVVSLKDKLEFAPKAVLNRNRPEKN
From the text: as §1, §2, §3, §4, §5, §6, §7

[6] = system: MYLK; design: method as in PMID 23398362; settings: cited from earlier work
[7] = target: C14orf166 (Homo sapiens, UniProt Q9Y224); settings: living HL-60 cells, […] °C, TMT-MS
Sequence of C14orf166 (Q9Y224 whole entry): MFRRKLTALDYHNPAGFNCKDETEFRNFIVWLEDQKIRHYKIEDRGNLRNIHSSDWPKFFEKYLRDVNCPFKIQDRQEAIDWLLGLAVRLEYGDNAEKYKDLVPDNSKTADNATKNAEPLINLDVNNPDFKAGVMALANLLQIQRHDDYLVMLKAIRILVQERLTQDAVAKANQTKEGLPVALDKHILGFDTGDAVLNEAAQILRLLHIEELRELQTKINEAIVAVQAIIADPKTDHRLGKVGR
From the text: as §1
HL-60 cells were expanded as described above for CETSA and TPP-TR to 1.25 million cells per milliliter. […] A number of 2.5 million cells in 2 mL of medium were added to each tube and incubated (1 h, 37 °C). […]
For each sample set comprising ten compound concentration range samples, a same volume of the cell extracts containing the fraction of soluble, non-denatured proteins, corresponding to an average of 5 µg total protein, was used for further analysis. The calculated volume was respectively transferred into PCR tubes of a tube strip and supplemented with SDS sample buffer without DTT and bromophenol blue (final concentrations: 7.5% glycerol, 3% SDS, 37.5 mM Tris/HCl pH 7.0) and ddH2O to a final volume of 10 µL, respectively. […]

[8] = target: NAPG (Homo sapiens, UniProt Q99747); test: TPP-CCR in living HL-60 cells
Sequence of NAPG (Q99747 whole entry): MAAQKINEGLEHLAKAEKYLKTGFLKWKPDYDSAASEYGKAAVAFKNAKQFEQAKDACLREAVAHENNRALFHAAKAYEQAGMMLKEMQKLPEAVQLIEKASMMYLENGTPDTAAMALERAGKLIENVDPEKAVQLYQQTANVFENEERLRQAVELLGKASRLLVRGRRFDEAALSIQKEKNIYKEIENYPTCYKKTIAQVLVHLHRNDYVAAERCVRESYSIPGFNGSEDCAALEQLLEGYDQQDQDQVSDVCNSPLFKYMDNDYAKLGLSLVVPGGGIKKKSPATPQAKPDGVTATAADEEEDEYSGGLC

[9] = living HL-60 cells, […] °C, TMT-MS

Sequence of MARS (P56192 whole entry): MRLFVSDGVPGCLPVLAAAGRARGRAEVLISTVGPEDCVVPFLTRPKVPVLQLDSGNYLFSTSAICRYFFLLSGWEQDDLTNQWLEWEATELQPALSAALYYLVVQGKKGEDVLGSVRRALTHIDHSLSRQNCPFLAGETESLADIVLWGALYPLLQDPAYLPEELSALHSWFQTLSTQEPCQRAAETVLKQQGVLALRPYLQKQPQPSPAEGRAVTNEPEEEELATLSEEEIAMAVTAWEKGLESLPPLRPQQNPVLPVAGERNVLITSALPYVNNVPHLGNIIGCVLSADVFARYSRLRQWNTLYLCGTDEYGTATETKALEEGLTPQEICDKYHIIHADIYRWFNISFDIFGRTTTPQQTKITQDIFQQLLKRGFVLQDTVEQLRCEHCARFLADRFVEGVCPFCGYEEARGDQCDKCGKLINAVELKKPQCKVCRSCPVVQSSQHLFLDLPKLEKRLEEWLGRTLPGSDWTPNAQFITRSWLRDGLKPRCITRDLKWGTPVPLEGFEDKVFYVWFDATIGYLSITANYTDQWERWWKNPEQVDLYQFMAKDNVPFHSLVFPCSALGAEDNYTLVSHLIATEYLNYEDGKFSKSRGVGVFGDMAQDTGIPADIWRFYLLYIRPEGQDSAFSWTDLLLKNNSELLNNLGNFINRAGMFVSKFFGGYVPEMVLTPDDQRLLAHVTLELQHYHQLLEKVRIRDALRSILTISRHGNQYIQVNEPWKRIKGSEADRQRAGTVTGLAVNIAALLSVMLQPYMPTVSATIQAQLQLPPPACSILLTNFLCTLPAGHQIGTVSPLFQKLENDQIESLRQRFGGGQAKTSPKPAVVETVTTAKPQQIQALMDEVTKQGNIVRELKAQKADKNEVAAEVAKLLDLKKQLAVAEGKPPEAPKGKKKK

SMILES: Cn1c(NC[C@@H](N)Cc2ccccc2)nc(-c2ccncc2)c(-c2ccc3ccccc3c2)c1=O [AMG-548]
- EC50 [1]: 209 nM
- Hill slope (MARS) [1, 9]: 0.40
- pEC50, Living cells ([2]; extrapolated to 50°C and extracted from figure 3b): 8.57
- pEC50, Living cells ([2]; extrapolated to […]°C and extracted from figure 3b): 8.23
- EC50 [3]: 105 nM
- Hill slope (MTMR1) [3, 9]: 0.38

SMILES: Cc1cnc(Nc2ccc(F)cc2Cl)nc1-c1c[nH]c(C(=O)N[C@H](CO)c2cccc(Cl)c2)c1 [ERK 11e]
- Hill slope ([4]; TPP-CCR, living cells, RARS): 0.38
- EC50 [4, 9]: 83.2 nM
- Hill slope (RARS) [4, 9]: 0.38
- Hill slope ([5]; TPP-CCR, living cells, SMIM12): 0.47
- Hill slope (SMIM12) [5, 9]: 0.47
- EC50 ([5]; living HL-60 cells, […] °C, TMT-MS, read-out: pEC50 (SMIM12) (converted)): 427 nM

SMILES: C[S+]([O-])c1ccc(-c2nc(-c3ccncc3)c(-c3ccc(F)cc3)[nH]2)cc1 (stereo not shown) [SB203580]
- activity against MYLK [6]: inactivity
- Hill slope (C14orf166) [7]: 0.33
- EC50 [8]: 1.95 nM
- Hill slope (NAPG) [8, 9]: 0.24
